Assay [1] deals with [^3 H]-Spiroperidol binding (receptor). The assay can be described thus: Inhibition of [3H]-spiroperidol binding (receptor assay, Grigoriadis and Seeman). The protocol: (§1) The compounds of Formula I are valuable dopaminergic agents. […] Thus, the compounds of Formula I were tested for their ability to inhibit locomotor activity in mice according to the assay described by J. R. McLean, et al, Pharmacoloqy, Biochemistry and Behavior, Volume 8, pages 97-99 (1978); for their ability to inhibit [^3 H]-spiroperidol binding in a receptor assay described by D. Grigoriadis and P. Seeman, Journal of Neurochemistry, Volume 44, Pages 1925-1935 (1985); and for their ability to inhibit dopamine synthesis in rats according to the protocol described by J. R. Walters and R. H. Roth, Naunyn-Schmiedeberg's Archives of Pharmacology, Volume 296, pages 5-14 (1976). The above test methods are incorporated herein by reference. The data in the table show the dopaminergic activity of representative compounds of Formula I. Additionally, compounds of Formula I are ligands for the sigma opiate binding site. The data in the table show the inhibition of [^3 H]DTG ([…], a sigma ligand) binding by representative compounds of Formula I, according to the method of E. Weber, et al. Proceedings of the National Academy of Sciences, USA, Volume 83, Pages 8784-8788 (1986).

Another assay deals with mice. The assay can be described thus: Inhibition of locomotor activity in mice (McLean et al.). The format is in vivo. Particulars: Mus musculus, read-out: Inhibition of Locomotor Activity in Mice ED50. How it is done: as §1
For assay [2], the system named is Brain Striatal Dopamine Synthesis. Nature of the assay: Inhibition of brain striatal dopamine synthesis in rats (Walters and Roth). The format is in vivo. Particulars: Rattus norvegicus, IP, read-out: Effects on Brain Striatal Dopamine Synthesis in Rats, inhibition. How it is done:
as §1

Assay [3] concerns the target sigma opiate binding site. The assay can be described thus: Inhibition of [3H]DTG (ditoluoylguanidine) binding (Weber et al.). How it is done: as §1

Each structure is given as a SMILES string. Read-outs that look alike come from different tables or passages of the source.

In turn, `C1=C(c2ccccn2)CCC(N2CCN(c3ccccn3)CC2)C1` (racemic) [Example 1a, (±)-1-(2-Pyridinyl)-4-[4-(2-pyridinyl)-3-cyclohexen-1-yl]-piperazine] registered an IC50 in assay [1] of 1180 nM. Further, the ED50 with mice (mice, IP) amounted to 0.9 mg/kg. Besides, the inhibition at 10 mg/kg in assay [2] stood at 75%.
`C1=C(c2ccccc2)CCC(N2CCN(c3ccccn3)CC2)C1` (racemic) [Example 2a, (±)-1-(4-Phenyl-3-cyclohexen-1-yl)-4-(2-pyridinyl)piperazine] returned an IC50 in assay [1] of 599 nM. Besides, the ED50 with mice (mice, IP) was determined as 1 mg/kg.
In the same order, the values of `C1=C(c2cccs2)CCC(N2CCN(c3ccccn3)CC2)C1` (racemic) [Example 2, (±)-1-(2-Pyridinyl)-4-[4-(2-thienyl)-3-cyclohexen-1-yl]-piperazine] are 352 nM and 9.3 mg/kg.
Turning to `C1=C(c2nccs2)CCC(CCN2CCN(c3ccccn3)CC2)C1` (racemic) [Example 2f, (±)-1-(2-Pyridinyl)-4-[2-[4-(2-thiazolyl)-3-cyclohexen1-yl]-ethyl]piperazine], the figures for the IC50 in assay [1] and in assay [3] were 267 nM and 98 nM, respectively. For the same compound, the ED50 in the assay on mice (mice, IP) turned out to be 0.8 mg/kg. The inhibition at 10 mg/kg in assay [2] worked out at 77%.
In the case of `C1=C(c2cccs2)CCC(CCN2CCN(c3ccccn3)CC2)C1` (racemic) [Example 2c, (±)-1-(2-Pyridinyl)-4-[2-[4-(2-thienyl)-3-cyclohexen-1-yl]ethyl]-piperazine], the ED50 in the assay with mice (mice, IP) was determined as 8.4 mg/kg. Besides, in assay [2], the inhibition at 10 mg/kg was 46%. Moreover, the IC50 in assay [3] was determined as 39 nM.
As for `C1=C(c2ccccn2)CCC(CCN2CCN(c3ccccn3)CC2)C1` (racemic) [Example 1b, (±)-1-(2-Pyridinyl)-4-[2-[4-(2-pyridinyl)-3-cyclohexen-1-yl]ethyl]piperazine], the IC50 in assay [1] was 128 nM; in assay [3] it was 39 nM. The ED50 in the assay with mice (mice, IP) came to 0.4 mg/kg.
Turning to `C1=C(c2ccccc2)CCN(CCC2CC=C(c3cccs3)CC2)C1` (racemic) [Example 2g, (±)-1,2,3,6-Tetrahydro-4-phenyl-1-[2-[4-(2-thienyl)-3-cyclohexen-1-yl]ethyl]pyridine], the IC50 in assay [1] stood at 32 nM; in assay [3], 2 nM. Besides, the ED50 with mice (ip) turned out to be 3 mg/kg.
With `C1=C(c2cccnc2)CCC(N2CCN(c3ccccn3)CC2)C1` (racemic) [Example 1, (±)-1-(2-Pyridinyl)-4-[4-(3-pyridinyl)-3-cyclohexen-1-yl]piperazine], in assay [1], the IC50 amounted to 188 nM. Further, the ED50 in the assay on mice (mice, IP) worked out at 0.1 mg/kg. Also, the inhibition at 10 mg/kg in assay [2] was determined as 100%.
Consider `C1=C(c2ccccc2)CCN(C2CC=C(c3ccccn3)CC2)C1` (racemic) [Example 3, (±)-2-[4-(3,6-Dihydro-4-phenyl-1(2H)-pyridinyl)-1-cyclohexen-1-yl]pyridine], for which the IC50 in assay [1] is 296 nM. Further, the ED50 in the assay with mice (ip) came out at 2 mg/kg.
Turning to `C1=C(c2cccs2)CCC(CN2CCN(c3ccccn3)CC2)C1` (racemic) [Example 2b, (±)-1-(2-Pyridinyl)-4-[[4-(2-thienyl)-3-cyclohexen-1-yl]methyl]-piperazine], the IC50 in assay [1] was 2430 nM. In the assay on mice (mice, IP), the ED50 was less than 30 mg/kg.
For the compound `Fc1ccc(C2=CCC(CCN3CCN(c4ccccn4)CC3)CC2)cc1` (racemic) [Example 2e, (±)-1-[2-[4-(4-Fluorophenyl)-3-cyclohexen-1-yl]ethyl]-4-(2-pyridinyl)piperazine], the IC50 amounted to 365 nM in assay [1] and 20 nM in assay [3]. Also, the median effective dose (ED50) in the assay on mice (mice, IP) was determined as 2.9 mg/kg. Besides, the inhibition at 10 mg/kg in assay [2] is 23%.
In the same order, the values of `C1=C(c2ccccc2)CCC(CCN2CCN(c3ccccn3)CC2)C1` (racemic) [Example 2d, (±)-1-[2-(4-Phenyl-3-cyclohexen-1-yl)ethyl]-4-(2-pyridinyl)piperazine] are 409 nM, 23 nM, 1.9 mg/kg and 48%.

The values above are taken from patent US4975445A, “Substituted cyclohexenes as central nervous system agents” (priority 1989, dated 1990).
